We go through two molecules from US9931308B2, “Compositions and methods using P-anisaldehyde” (NESTEC S.A., priority 2013, dated 2018).

Structures are written as SMILES. Where two headings read alike, the source gives them in different places.

Assay [1] relates to mice. The assay can be described thus: short term food intake after a single ingestion in mice (FIG. 5). The assay is classed as in vivo. The note with it: single dose vs sham gavage.
Assay [2] concerns mice. The assay can be described thus: gastric emptying after a single ingestion in mice (FIG. 6). It is filed as in vivo. The note with it: single dose vs sham gavage.
Assay [3] concerns mice. As to the kind of experiment: body weight gain in mice with chronic ingestion, high fat diet (FIG. 3). It is filed as in vivo. The note with it: mice chronically fed high fat diet containing 0.2 wt % compound vs same diet without.
For assay [4], the target named is T1, TRPA1 (Homo sapiens, UniProt O75762). The note with it: known TRPA1 agonist; read-out: EC50 TRPA1 activation; cited from earlier work.
T1 sequence (O75762 whole entry, species assumed): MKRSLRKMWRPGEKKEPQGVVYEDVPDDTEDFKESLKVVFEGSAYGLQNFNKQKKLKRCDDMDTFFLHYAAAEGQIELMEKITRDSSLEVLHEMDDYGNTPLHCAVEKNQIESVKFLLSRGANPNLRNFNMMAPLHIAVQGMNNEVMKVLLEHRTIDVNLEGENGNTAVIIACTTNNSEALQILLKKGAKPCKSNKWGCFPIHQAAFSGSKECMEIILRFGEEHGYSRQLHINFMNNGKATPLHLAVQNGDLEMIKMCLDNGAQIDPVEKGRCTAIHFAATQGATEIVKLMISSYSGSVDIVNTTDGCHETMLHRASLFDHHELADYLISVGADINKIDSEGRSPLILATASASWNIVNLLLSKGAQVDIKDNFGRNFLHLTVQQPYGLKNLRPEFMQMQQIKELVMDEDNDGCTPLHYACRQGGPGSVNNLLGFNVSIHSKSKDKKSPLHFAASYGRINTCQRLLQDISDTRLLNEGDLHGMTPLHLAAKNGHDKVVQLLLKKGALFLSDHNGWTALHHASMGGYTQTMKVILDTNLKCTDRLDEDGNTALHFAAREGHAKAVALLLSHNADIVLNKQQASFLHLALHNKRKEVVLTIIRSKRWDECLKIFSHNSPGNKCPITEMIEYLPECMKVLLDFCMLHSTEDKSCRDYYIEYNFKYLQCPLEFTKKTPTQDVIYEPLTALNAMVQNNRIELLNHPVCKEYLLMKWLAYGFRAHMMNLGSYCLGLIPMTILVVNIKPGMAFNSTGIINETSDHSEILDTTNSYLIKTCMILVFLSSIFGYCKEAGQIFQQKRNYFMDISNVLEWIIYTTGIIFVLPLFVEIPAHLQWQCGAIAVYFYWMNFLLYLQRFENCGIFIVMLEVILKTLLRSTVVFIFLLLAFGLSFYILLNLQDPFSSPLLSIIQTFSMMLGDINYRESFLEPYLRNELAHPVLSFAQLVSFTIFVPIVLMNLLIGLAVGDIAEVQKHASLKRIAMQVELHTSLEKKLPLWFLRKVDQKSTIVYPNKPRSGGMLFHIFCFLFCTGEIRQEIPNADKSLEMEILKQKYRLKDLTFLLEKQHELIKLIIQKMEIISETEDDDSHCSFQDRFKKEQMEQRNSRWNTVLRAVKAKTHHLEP
For assay [5], the system named is mice. As to the kind of experiment: insulin sensitivity in mice with chronic ingestion, high fat diet (FIG. 4). The assay is classed as in vivo. The note with it: mice chronically fed high fat diet containing 0.2 wt % compound vs same diet without.
Assay [6] concerns the target T1, TRPA1. The assay can be described thus: in vitro activation of TRPA1 in cells expressing TRP channels (FIG. 7). It is filed as cell-based. The note with it: FIG. 7, circles; read-out: EC-50 TRPA1 activation.
A further assay has as its system "empty" cells. The assay can be described thus: in vitro activation on "empty" cells, control (FIG. 7). It is filed as cell-based. The note with it: FIG. 7, downward pointing triangles.
In a further assay the target is TRPM8 (Homo sapiens, UniProt Q7Z2W7). The assay can be described thus: in vitro activation of hTRPM8 in cells expressing TRP channels (FIG. 7). Further details: expressed in transfected cells; an “empty” cell control implies recombinant expression. The assay is classed as cell-based. The note with it: FIG. 7, upward pointing triangles.
Chain of TRPM8 (Q7Z2W7 whole entry): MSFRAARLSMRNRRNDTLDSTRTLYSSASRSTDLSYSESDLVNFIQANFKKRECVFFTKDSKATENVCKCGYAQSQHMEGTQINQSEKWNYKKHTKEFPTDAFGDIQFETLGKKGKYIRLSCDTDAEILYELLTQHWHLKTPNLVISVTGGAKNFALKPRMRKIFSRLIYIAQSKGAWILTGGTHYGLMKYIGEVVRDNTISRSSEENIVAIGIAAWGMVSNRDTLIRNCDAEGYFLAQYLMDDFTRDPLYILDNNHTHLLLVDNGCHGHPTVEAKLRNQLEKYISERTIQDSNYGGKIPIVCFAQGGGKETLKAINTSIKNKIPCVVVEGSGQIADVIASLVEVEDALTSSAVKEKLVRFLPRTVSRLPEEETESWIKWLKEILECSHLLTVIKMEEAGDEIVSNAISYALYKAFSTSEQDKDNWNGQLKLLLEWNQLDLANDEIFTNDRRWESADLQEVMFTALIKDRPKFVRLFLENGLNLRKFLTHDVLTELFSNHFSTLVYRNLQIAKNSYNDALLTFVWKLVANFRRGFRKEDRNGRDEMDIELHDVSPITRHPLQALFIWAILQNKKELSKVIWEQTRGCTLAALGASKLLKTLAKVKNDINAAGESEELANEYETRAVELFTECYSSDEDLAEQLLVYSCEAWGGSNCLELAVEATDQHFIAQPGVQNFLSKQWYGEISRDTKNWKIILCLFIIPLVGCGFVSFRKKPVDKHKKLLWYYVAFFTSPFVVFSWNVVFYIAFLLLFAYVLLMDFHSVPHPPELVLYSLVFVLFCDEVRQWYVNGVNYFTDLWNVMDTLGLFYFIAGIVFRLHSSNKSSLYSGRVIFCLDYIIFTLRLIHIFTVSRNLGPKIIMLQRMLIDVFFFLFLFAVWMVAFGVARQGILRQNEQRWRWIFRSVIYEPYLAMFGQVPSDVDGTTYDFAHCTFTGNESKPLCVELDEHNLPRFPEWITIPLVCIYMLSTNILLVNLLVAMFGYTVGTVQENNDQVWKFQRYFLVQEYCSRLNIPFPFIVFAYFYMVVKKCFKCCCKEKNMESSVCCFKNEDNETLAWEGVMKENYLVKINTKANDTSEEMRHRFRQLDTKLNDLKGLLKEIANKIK
The target in a further assay is T2, TRPV1 (Homo sapiens, UniProt Q8NER1).
T2 construct: expressed in transfected cells; an “empty” cell control implies recombinant expression
T2 sequence (Q8NER1 whole entry, species assumed): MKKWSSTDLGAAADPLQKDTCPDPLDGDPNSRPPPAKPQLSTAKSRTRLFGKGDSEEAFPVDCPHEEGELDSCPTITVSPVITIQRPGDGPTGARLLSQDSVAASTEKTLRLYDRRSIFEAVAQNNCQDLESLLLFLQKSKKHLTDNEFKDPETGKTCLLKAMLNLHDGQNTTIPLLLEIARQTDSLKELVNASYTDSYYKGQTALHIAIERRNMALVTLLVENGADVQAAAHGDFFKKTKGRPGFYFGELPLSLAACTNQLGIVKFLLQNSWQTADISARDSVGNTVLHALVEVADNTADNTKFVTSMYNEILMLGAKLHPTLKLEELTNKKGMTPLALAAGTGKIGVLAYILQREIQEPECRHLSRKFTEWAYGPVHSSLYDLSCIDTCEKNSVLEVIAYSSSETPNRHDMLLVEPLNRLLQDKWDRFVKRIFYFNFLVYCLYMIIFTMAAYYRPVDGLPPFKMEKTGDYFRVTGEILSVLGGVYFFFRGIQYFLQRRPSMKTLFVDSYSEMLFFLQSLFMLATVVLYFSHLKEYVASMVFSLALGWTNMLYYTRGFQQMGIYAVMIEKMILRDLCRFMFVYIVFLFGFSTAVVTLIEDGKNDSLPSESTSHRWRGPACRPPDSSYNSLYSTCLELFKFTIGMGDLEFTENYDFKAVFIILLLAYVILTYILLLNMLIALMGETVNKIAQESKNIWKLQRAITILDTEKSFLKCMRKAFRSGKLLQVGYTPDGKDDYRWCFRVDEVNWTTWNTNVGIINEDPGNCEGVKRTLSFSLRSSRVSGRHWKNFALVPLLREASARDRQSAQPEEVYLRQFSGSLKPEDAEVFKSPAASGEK
As to the kind of experiment: in vitro activation of TRPV1 in cells expressing TRP channels (FIG. 7). The assay is classed as cell-based. The note with it: FIG. 7, squares; read-out: EC 50 TRPV1 activation.

Turning to `O=CC=Cc1ccccc1` [cinnamaldehyde], the “short term food intake” value in the assay with mice [1] was “reduction in short term food intake”. Moreover, the gastric emptying entry with mice [2] was “delayed gastric emptying”. Moreover, the body weight gain result with mice [3] is “gained less weight”. At TRPA1 [4], the EC50 was ~60 µM. Besides, the insulin sensitivity result with mice [5] was “improved insulin sensitivity”.

In the case of `COc1ccc(C=O)cc1` [p-anisaldehyde], the EC50 on TRPA1 [6] is ~100 µM; at TRPV1 it was ~500 µM. Further, the “activation of "empty" cells” value in the assay with "empty" cells is “no activation was observed”. Besides, the “activation of hTRPM8” value at TRPM8 is “no activation was observed”.
